Assay results: patent US7196110B2, “N-substituted tricyclic 3-aminopyrazoles as inhibitors for the treatment of cell proliferative disorders” (Janssen Phamaceutica N.V., priority 2002, dated 2007)

Target: T1, PDGF-receptor beta enzyme comprising the tyrosine kinase domain (Homo sapiens, UniProt P09619)
T1 construct: from amino acid 545 to 1106 of GenBank Access NO: AAA36427
Experiment: Inhibition of PDGF-receptor kinase activity (cell-free, PLC1 peptide, 33P Flashplate)
Assay type: biochemical
Conditions: PDGF-R kinase activity; for inhibition at 10 µM: compound at 10 uM, read-out: Percent Inhibition @ 10 uM; for IC50: read-out: IC50
Description: PDGF-R kinase activity was assayed by its ability to phosphorylate one of its target proteins, PLCγ, in a cell-free system, in particular, a PLC1 peptide comprising the tyrosine residue where the phosphorylation occurs was used for the assay.
10× Kinase Buffer (500 mM Tris-HCl pH=8, 100 mM MgCl2, 1 mM Na3VO4); 10 mM DTT (final concentration at 1 mM in assay); 10 mM ATP (final concentration at 5 μM in assay); ^33P-γ-ATP (Cat. No.: NEG/602H. 2000-3000 Ci/mmol) purchased from NEN; Purified, soluble, recombinant PDGF-receptor beta enzyme comprising the tyrosine kinase domain (from amino acid 545 to 1106 of GenBank Access NO: AAA36427 ) at 0.4 mg/mL; Enzyme Dilution Buffer (50 mM Tris-HCl pH=8.0, 0.1% BSA); Wash/Stop Buffer (PBS +100 mM EDTA); NEN Streptavidin Flashplates (Cat. No.: SMP-103) which binds to the biotinylated PLC1 peptide but not the PDGF-R enzyme; PLC1 peptide (Biotin-[…]-Amide) at 1 mM in 50 mM Tris-HCL with pH of 8.0.
Reagents were first mixed according the following regimen:
The above reaction mixture was dispensed into each well of a Flashplate at 70 μl/well. To test the effect of a compound on PDGF-R kinase activity, the test compound either in a fixed concentration or in serially diluted concentrations in 100% DMSO was added to appropriate wells at 1 μl/well.
Enzyme PDGF-R was diluted in Enzyme dilution buffer as following:
The kinase reaction was initiated by adding 30 μl of diluted PDGF-R enzyme solution to each well on the Flashplate containing hot ATP and PLC1, except wells of column 12 rows E through H, which were used to calculate the plate background. The Flashplate was swirled to mix and was incubated at 30° C. for 60 minutes. Then, the reaction mixture was discarded and the Flashplate was washed 3 times each with 200 μl Wash/Stop Buffer. Subsequently, each well on the Flashplate was filled with 200 μl of Wash/Stop buffer. The amount of ^33P retained in each well was measured using a Packard TopCount after the plate was sealed with a transparent plate sealer.
The percentage of inhibition of the test compound on PDGF-R kinase activity is defined as […].
In order to test the potency of inhibition of present compounds, an IC50 for an individual compound was measured using the above procedure. As used herein, the IC50 for PDGF-R kinase activity refers to the concentration of an inhibitor at which the activity of the PDGF-R kinase is reduced by one-half as compared with reactions containing no inhibitor.

T1 sequence (P09619 545-1106): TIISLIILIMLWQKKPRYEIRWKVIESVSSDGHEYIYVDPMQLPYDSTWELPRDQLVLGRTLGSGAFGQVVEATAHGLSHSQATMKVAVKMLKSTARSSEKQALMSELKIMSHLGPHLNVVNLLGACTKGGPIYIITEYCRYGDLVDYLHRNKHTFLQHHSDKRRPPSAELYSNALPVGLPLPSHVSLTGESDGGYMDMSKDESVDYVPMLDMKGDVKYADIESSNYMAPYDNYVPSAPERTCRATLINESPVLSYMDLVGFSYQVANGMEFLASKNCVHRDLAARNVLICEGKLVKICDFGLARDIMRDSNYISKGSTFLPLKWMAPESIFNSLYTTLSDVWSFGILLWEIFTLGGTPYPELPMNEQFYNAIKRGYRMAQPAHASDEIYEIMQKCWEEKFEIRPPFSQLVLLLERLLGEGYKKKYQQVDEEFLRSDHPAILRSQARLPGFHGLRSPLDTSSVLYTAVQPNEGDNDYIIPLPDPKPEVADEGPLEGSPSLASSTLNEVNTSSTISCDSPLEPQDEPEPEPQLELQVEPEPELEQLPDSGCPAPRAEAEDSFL

SMILES	inhibition at 10 µM	IC50
OC1c2ccccc2-c2n[nH]c(Nc3ccccc3)c21 (centres unmarked) [Compound 50, 3-Phenylamino-2,4-dihydro-indeno[1,2-c]pyrazol-4-ol]	38%	11400 nM
COc1cc2c(cc1OC)-c1n[nH]c(Nc3ccc(N4CCN(C)CC4)cc3)c1C2 [Compound 51, (6,7-Dimethoxy-2,4-dihydro-indeno[1,2-c]pyrazol-3-yl)-[4-(4-methyl-piperazin-1-yl)-phenyl]-amine]	30%	26700 nM
c1ccc(Nc2[nH]nc3c2CCc2sccc2-3)cc1 [Compound 52, (4,5-Dihydro-2H-6-thia-1,2-diaza-as-indacen-3-yl)-phenyl-amine]	71%	2400 nM
CN1CCN(c2ccc3c(c2)Cc2c-3n[nH]c2Nc2ccccc2)CC1 [Compound 64, [6-(4-Methyl-piperazin-1-yl)-2,4-dihydro-indeno[1,2-c]pyrazol-3-yl]-phenyl-amine]	118%	449 nM
c1ccc(Nc2[nH]nc3c2Cc2cc(N4CCCCC4)ccc2-3)cc1 [Compound 65, Phenyl-(6-piperidin-1-yl-2,4-dihydro-indeno[1,2-c]pyrazol-3-yl)-amine]	76%	1540 nM
Nc1ccc2c(c1)Cc1c-2n[nH]c1Nc1ccccc1 [Compound 66, N3-Phenyl-2,4-dihydro-indeno[1,2-c]pyrazole-3,6-diamine]	108%	92 nM
COc1cc2c(cc1OC)-c1n[nH]c(NC3CCCCC3)c1C2 [Compound 67, Cyclohexyl-(6,7-dimethoxy-2,4-dihydro-indeno[1,2-c]pyrazol-3-yl)-amine]	77%	617 nM
COc1cc2c(cc1OC)-c1n[nH]c(NCCN3CCOCC3)c1C2 [Compound 69, (6,7-Dimethoxy-2,4-dihydro-indeno[1,2-c]pyrazol-3-yl)-(2-morpholin-4-yl-ethyl)-amine]	18%	
COc1cc2c(cc1OC)-c1n[nH]c(Nc3cc(C(F)(F)F)cc(C(F)(F)F)c3)c1C2 [Compound 70, (3,5-Bis-trifluoromethyl-phenyl)-(6,7-dimethoxy-2,4-dihydro-indeno[1,2-c]pyrazol-3-yl)-amine]	41.5%	16800 nM
CN(C)CCCOc1cccc2c1Cc1c-2n[nH]c1Nc1ccccc1 [Compound 71, [5-(3-Dimethylamino-propoxy)-2,4-dihydro-indeno[1,2-c]pyrazol-3-yl]-phenyl-amine]	110%	185 nM
CN(C)CCCOc1cccc2c1Cc1c-2n[nH]c1Nc1cccc(Cl)c1 [Compound 72, (3-Chloro-phenyl)-[5-(3-dimethylamino-propoxy)-2,4-dihydro-indeno[1,2-c]pyrazol-3-yl]-amine]	96%	283 nM
CN(C)CCCOc1cccc2c1Cc1c-2n[nH]c1Nc1ccc(F)cc1 [Compound 73, [5-(3-Dimethylamino-propoxy)-2,4-dihydro-indeno[1,2-c]pyrazol-3-yl]-(4-fluoro-phenyl)-amine]	~30%	> 50000 nM
COc1cccc(Nc2[nH]nc3c2Cc2c(OCCCN(C)C)cccc2-3)c1 [Compound 74, [5-(3-Dimethylamino-propoxy)-2,4-dihydro-indeno[1,2-c]pyrazol-3-yl]-(3-methoxy-phenyl)-amine]	102%	424 nM
CN(C)CCCOc1cccc2c1Cc1c-2n[nH]c1Nc1cccnc1 [Compound 75, [5-(3-Dimethylamino-propoxy)-2,4-dihydro-indeno[1,2-c]pyrazol-3-yl]-pyridin-3-yl-amine]	115%	575 nM
COC(=O)c1cccc(Nc2[nH]nc3c2Cc2c(OCCCN(C)C)cccc2-3)c1 [Compound 77, 3-[5-(3-Dimethylamino-propoxy)-2,4-dihydro-indeno[1,2-c]pyrazol-3-ylamino]-benzoic acid methyl ester]	108%	217 nM

Continued, values first:

inhibition at 10 µM	IC50	SMILES
86%	2160 nM	COc1cc2c(cc1OC)-c1n[nH]c(Nc3ccc(Br)cc3)c1C2 [Compound 45, (4-Bromo-phenyl)-(6,7-dimethoxy-2,4-dihydro-indeno[1,2-c]pyrazol-3-yl)-amine]
51%	14200 nM	COc1cc2c(cc1OC)-c1n[nH]c(Nc3cc(Cl)ccc3C)c1C2 [Compound 46, (5-Chloro-2-methyl-phenyl)-(6,7-dimethoxy-2,4-dihydro-indeno[1,2-c]pyrazol-3-yl)-amine]
47%		COc1ccc(Nc2[nH]nc3c2Cc2cc(OC)c(OC)cc2-3)c(OC)c1 [Compound 47, (6,7-Dimethoxy-2,4-dihydro-indeno[1,2-c]pyrazol-3-yl)-(2,4-dimethoxy-phenyl)-amine]
39%		COc1ccc(OC)c(Nc2[nH]nc3c2Cc2cc(OC)c(OC)cc2-3)c1 [Compound 48, (6,7-Dimethoxy-2,4-dihydro-indeno[1,2-c]pyrazol-3-yl)-(2,5-dimethoxy-phenyl)-amine]
72%	3070 nM	COc1ccc(Nc2[nH]nc3c2Cc2cc(OC)c(OC)cc2-3)cc1OC [Compound 49, (6,7-Dimethoxy-2,4-dihydro-indeno[1,2-c]pyrazol-3-yl)-(3,4-dimethoxy-phenyl)-amine]
94%	58.6 nM	COc1cc2c(cc1OC)-c1n[nH]c(Nc3ccc(F)c(Cl)c3)c1C2 [Compound 53, (3-Chloro-4-fluoro-phenyl)-(6,7-dimethoxy-2,4-dihydro-indeno[1,2-c]pyrazol-3-yl)-amine]
76%	636 nM	COc1cc2c(cc1OC)-c1n[nH]c(Nc3cc(F)ccc3F)c1C2 [Compound 55, (2,5-Difluoro-phenyl)-(6,7-dimethoxy-2,4-dihydro-indeno[1,2-c]pyrazol-3-yl)-amine]
36%	8400 nM	COc1ccc(Cl)cc1Nc1[nH]nc2c1Cc1cc(OC)c(OC)cc1-2 [Compound 56, (5-Chloro-2-methoxy-phenyl)-(6,7-dimethoxy-2,4-dihydro-indeno[1,2-c]pyrazol-3-yl)-amine]
71%	2150 nM	COc1cc2c(cc1OC)-c1n[nH]c(Nc3ccccc3C(C)C)c1C2 [Compound 57, (6,7-Dimethoxy-2,4-dihydro-indeno[1,2-c]pyrazol-3-yl)-(2-isopropyl-phenyl)-amine]
40%	8520 nM	CCc1ccccc1Nc1[nH]nc2c1Cc1cc(OC)c(OC)cc1-2 [Compound 58, (6,7-Dimethoxy-2,4-dihydro-indeno[1,2-c]pyrazol-3-yl)-(2-ethyl-phenyl)-amine]
71%	1820 nM	COc1cc2c(cc1OC)-c1n[nH]c(Nc3ccc(C#N)cc3)c1C2 [Compound 59, 4-(6,7-Dimethoxy-2,4-dihydro-indeno[1,2-c]pyrazol-3-ylamino)-benzonitrile]
71%	137 nM	COc1cc2c(cc1OC)-c1n[nH]c(Nc3cccc(C#N)c3)c1C2 [Compound 61, 3-(6,7-Dimethoxy-2,4-dihydro-indeno[1,2-c]pyrazol-3-ylamino)-benzonitrile]
85%	313 nM	COc1cc2c(cc1OC)-c1n[nH]c(Nc3ccc4c(c3)OCO4)c1C2 [Compound 62, Benzo[1,3]dioxol-5-yl-(6,7-dimethoxy-2,4-dihydro-indeno[1,2-c]pyrazol-3-yl)-amine]
16%	> 50000 nM	COc1cc2c(cc1OC)-c1n[nH]c(Nc3ccc(Br)cc3C(F)(F)F)c1C2 [Compound 76, (4-Bromo-2-trifluoromethyl-phenyl)-(6,7-dimethoxy-2,4-dihydro-indeno[1,2-c]pyrazol-3-yl)-amine]
85%	1290 nM	COc1cc2c(cc1OC)-c1n[nH]c(Nc3ccco3)c1C2 [Compound 78, (6,7-Dimethoxy-2,4-dihydro-indeno[1,2-c]pyrazol-3-yl)-furan-2-yl-amine]
56%	3710 nM	COc1cc2c(cc1OC)-c1n[nH]c(Nc3ccc4c(c3)CCC4)c1C2 [Compound 79, (6,7-Dimethoxy-2,4-dihydro-indeno[1,2-c]pyrazol-3-yl)-indan-5-yl-amine]
